Data from patent US8962615B2, “Cell migration modulating compounds” (University of Dundee, priority 2005, dated 2015).

Test system: human skin fibroblasts
Assay: migration of human skin fibroblasts in the 3D collagen gel assay
Type: cell-based
Conditions: relative to control fibroblasts in the absence of test compound, FIG. 3
Source text: The results were plotted and are shown on the graph depicted in FIG. 3 in which compound (IV) is referred to as BDP 1. The data are expressed as fold-stimulation of migration relative to control fibroblasts in the absence of test compound. The range of base-line (control) migration is indicated by the horizontal dotted lines.

`COC(=O)CC1Nc2c(cccc2OCCC(C)C)CN(C)C1=O` (stereo not shown) [Compound (IV)] was tested, and the “fold-stimulation of migration relative to control fibroblasts” value was “stimulated target cell migration with a bell-shaped dose-response similar in potency and profile to that of IGDS”.
